SMILES strings stand for the structures.

What is called IC50 is the concentration needed to halve the response being measured. Lower therefore signals greater potency.

In the assay the target is T1, PfJmj3 (Plasmodium falciparum, UniProt Q8IIE4).
T1 sequence (Q8IIE4 1-446): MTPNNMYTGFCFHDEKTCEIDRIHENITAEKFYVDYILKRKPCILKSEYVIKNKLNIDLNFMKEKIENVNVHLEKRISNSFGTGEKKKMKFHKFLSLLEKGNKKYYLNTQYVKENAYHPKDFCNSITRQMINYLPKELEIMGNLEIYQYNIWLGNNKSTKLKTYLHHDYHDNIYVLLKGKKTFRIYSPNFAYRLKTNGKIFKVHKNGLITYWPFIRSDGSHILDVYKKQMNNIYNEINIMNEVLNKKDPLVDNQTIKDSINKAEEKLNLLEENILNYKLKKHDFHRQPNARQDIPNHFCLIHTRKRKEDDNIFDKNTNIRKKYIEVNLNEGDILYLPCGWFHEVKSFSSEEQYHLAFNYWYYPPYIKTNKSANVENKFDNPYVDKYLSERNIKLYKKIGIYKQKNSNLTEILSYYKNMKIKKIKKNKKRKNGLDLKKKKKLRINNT
Kind of assay: Succinate-Glo luciferase-coupled assay. In kind it is biochemical.
The molecule `Clc1ccc(N/N=C(\c2ccccc2)c2ccccn2)nc1` [JIB-04 E] came in with an IC50 of 2600 nM.

`CC(C)C(=O)NC(c1ccco1)c1ccc2cccnc2c1O` (stereo not drawn) [SD-70] came in with an IC50 of 2400 nM. The IC50 values of the last two molecules are within 1.5-fold of each other.

`CN(C)CCCNC(=O)c1ccc(-c2cc(O)c3ncccc3c2)cc1` [ML324] displayed an IC50 of 3300 nM.

Source of the values: PMC7748244 (ACS Infectious Diseases, 2020).
